Each structure is given as a SMILES string.

The results in this text go back to ChEMBL document CHEMBL4033641, “Design, synthesis and anticancer potential of NSC-319745 hydroxamic acid derivatives as DNMT and HDAC inhibitors” (Eur J Med Chem, 2017).

In series [1] the test system is A549. The experiment in a line: Antiproliferative activity against human A549 cells after 72 hrs by MTT assay. The series is classed as functional, cell-based. The settings on record: A549, 72 h. A general note: Tetrazolium dyes change colour on reduction, which living cells bring about.
Series [2] has as its target DNA (cytosine-5)-methyltransferase 1 (Homo sapiens) (UniProt P26358). The experiment in a line: Inhibition of DNMT1 (unknown origin) at 100 uM using poly(dI-dC).poly(dI-dC) as substrate preincubated for 15 mins followed by substrate/[3H]-SAM addition measured after 120 mins by liquid scintillation counting analysis.
Series [3] concerns the target DNMT3A2/3L complex (Homo sapiens) (UniProt Q9Y6K1+Q9UJW3). The series is described as follows: Inhibition of DNMT3A/3L (unknown origin) at 100 uM using biotinylated DNA oligonucleotides as substrate preincubated for 15 mins followed by substrate/[3H]-SAM addition measured after 4 hrs by liquid scintillation counting analysis. The series is classed as protein-complex assay.

Series [4] has as its target DNMT3B-DNMT3L complex (Homo sapiens) (UniProt Q9UBC3+Q9UJW3). The experiment in a line: Inhibition of DNMT3B/3L (unknown origin) at 100 uM using biotinylated DNA oligonucleotides as substrate preincubated for 15 mins followed by substrate/[3H]-SAM addition measured after 4 hrs by liquid scintillation counting analysis. In kind it is protein-complex assay.
The target of series [5] is Histone deacetylase 1 (Homo sapiens, UniProt Q13547). The series is described as follows: Inhibition of HDAC1 (unknown origin) preincubated for 15 mins followed by substrate addition measured after 60 mins by fluorescence assay.
Series [6] deals with T1, Protein deacetylase HDAC6 (Homo sapiens, UniProt Q9UBN7).
T1 sequence (Q9UBN7 whole entry): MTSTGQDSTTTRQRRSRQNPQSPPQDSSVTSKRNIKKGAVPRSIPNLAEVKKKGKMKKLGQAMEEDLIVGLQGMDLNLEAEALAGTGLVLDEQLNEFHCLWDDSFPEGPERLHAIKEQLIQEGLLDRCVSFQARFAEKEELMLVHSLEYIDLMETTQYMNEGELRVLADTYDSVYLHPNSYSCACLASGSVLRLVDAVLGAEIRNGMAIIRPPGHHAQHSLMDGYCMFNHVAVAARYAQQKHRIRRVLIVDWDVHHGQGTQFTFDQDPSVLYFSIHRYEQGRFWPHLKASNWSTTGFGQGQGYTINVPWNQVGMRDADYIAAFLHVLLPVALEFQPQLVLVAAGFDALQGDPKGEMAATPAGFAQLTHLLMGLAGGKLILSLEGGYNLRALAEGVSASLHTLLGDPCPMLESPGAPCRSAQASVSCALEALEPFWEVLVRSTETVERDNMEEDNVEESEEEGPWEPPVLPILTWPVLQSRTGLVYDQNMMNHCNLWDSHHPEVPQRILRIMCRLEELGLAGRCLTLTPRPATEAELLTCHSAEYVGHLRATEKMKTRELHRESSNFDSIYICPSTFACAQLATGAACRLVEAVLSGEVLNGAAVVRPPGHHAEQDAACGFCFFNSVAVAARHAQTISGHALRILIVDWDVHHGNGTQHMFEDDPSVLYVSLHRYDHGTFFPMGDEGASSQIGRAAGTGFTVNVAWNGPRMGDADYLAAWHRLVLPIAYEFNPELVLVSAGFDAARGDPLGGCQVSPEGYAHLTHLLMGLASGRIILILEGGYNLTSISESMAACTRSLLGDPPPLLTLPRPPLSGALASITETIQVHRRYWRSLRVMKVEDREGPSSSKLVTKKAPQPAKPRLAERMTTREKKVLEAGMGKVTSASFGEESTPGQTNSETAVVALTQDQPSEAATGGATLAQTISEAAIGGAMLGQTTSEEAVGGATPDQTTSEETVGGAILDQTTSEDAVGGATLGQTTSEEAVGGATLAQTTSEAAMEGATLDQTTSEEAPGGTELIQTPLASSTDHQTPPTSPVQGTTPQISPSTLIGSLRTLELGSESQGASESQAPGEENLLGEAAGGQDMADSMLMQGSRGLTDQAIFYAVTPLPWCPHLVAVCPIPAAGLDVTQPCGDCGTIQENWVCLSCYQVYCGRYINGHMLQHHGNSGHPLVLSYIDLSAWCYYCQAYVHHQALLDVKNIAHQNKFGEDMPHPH
The experiment in a line: Inhibition of HDAC6 (unknown origin) preincubated for 15 mins followed by substrate addition measured after 60 mins by fluorescence assay.

For series [7], the system named is K562. The series is described as follows: Antiproliferative activity against human K562 cells after 72 hrs by MTT assay. In kind it is functional, cell-based. Conditions: K562, 72 h.
The test system of series [8] is U-937. The experiment in a line: Antiproliferative activity against human U937 cells after 72 hrs by MTT assay. Conditions: U-937, 72 h. In kind it is functional, cell-based.
Series [9] deals with HCT-116. The experiment in a line: Antiproliferative activity against human HCT116 cells after 72 hrs by MTT assay. The series is classed as functional, cell-based. Conditions: HCT-116, 72 h.
Series [10] concerns HepG2. The experiment in a line: Antiproliferative activity against human HepG2 cells after 72 hrs by MTT assay. In kind it is functional, cell-based. Conditions: HepG2, 72 h.
The subject of series [11] is HeLa. The series is described as follows: Antiproliferative activity against human HeLa cells after 72 hrs by MTT assay. In kind it is functional, cell-based.
Series [12] deals with U-937. The series is described as follows: Induction of apoptosis in human U937 cells assessed as viable cells at 0.5 uM after 48 hrs by Annexin V-FITC/PI staining based flow cytometry (reference value: 99.6%). In kind it is functional. Conditions: U-937, 48 h, read-out: Activity. For orientation: In flow cytometry, cells or beads pass a laser one at a time.
The subject of series [13] is U-937. The experiment in a line: Induction of apoptosis in human U937 cells assessed as early apoptotic cells at 0.5 uM after 48 hrs by Annexin V-FITC/PI staining based flow cytometry (reference value: 0.140%). The series is classed as functional.
Series [14] concerns U-937. The series is described as follows: Induction of apoptosis in human U937 cells assessed as late apoptotic cells at 0.5 uM after 48 hrs by Annexin V-FITC/PI staining based flow cytometry (reference value: 0.279%). The series is classed as functional.
Series [15] has as its system U-937. The series is described as follows: Induction of apoptosis in human U937 cells assessed as necrotic cells at 0.5 uM after 48 hrs by Annexin V-FITC/PI staining based flow cytometry (reference value: 0%). The series is classed as functional.
The subject of series [16] is U-937. The series is described as follows: Induction of apoptosis in human U937 cells assessed as viable cells at 1 uM after 48 hrs by Annexin V-FITC/PI staining based flow cytometry (reference value: 99.6%). The settings on record: U-937, 48 h, read-out: Activity. The series is classed as functional.
The subject of series [17] is U-937. The experiment in a line: Induction of apoptosis in human U937 cells assessed as early apoptotic cells at 1 uM after 48 hrs by Annexin V-FITC/PI staining based flow cytometry (reference value: 0.140%). In kind it is functional.
Series [18] has as its system U-937. The experiment in a line: Induction of apoptosis in human U937 cells assessed as late apoptotic cells at 1 uM after 48 hrs by Annexin V-FITC/PI staining based flow cytometry (reference value: 0.279%). In kind it is functional.
Series [19] deals with U-937. The series is described as follows: Induction of apoptosis in human U937 cells assessed as necrotic cells at 1 uM after 48 hrs by Annexin V-FITC/PI staining based flow cytometry (reference value: 0%). The series is classed as functional.
The subject of series [20] is U-937. The series is described as follows: Induction of apoptosis in human U937 cells assessed as viable cells at 2.5 uM after 48 hrs by Annexin V-FITC/PI staining based flow cytometry (reference value: 99.6%). In kind it is functional. The settings on record: U-937, 48 h, read-out: Activity.
In series [21] the test system is U-937. The series is described as follows: Induction of apoptosis in human U937 cells assessed as early apoptotic cells at 2.5 uM after 48 hrs by Annexin V-FITC/PI staining based flow cytometry (reference value: 0.140%). In kind it is functional.
Series [22] has as its system U-937. The series is described as follows: Induction of apoptosis in human U937 cells assessed as late apoptotic cells at 2.5 uM after 48 hrs by Annexin V-FITC/PI staining based flow cytometry (reference value: 0.279%). The series is classed as functional.
For series [23], the system named is U-937. The experiment in a line: Induction of apoptosis in human U937 cells assessed as necrotic cells at 2.5 uM after 48 hrs by Annexin V-FITC/PI staining based flow cytometry (reference value: 0%). In kind it is functional.
Series [24] relates to Salmonella typhimurium. The experiment in a line: Genotoxicity in Salmonella typhimurium TA97 at 50 times IC50 by Ames test. In kind it is toxicity. Conditions: salmonella enterica subsp. enterica serovar typhimurium. On the technique in general: In the Ames test, an excess of revertant colonies over the control signals mutagenicity.
Series [25] has as its system Salmonella typhimurium. The series is described as follows: Genotoxicity in Salmonella typhimurium TA98 at 50 times IC50 by Ames test. In kind it is toxicity. The settings on record: salmonella enterica subsp. enterica serovar typhimurium.
The test system of series [26] is Salmonella typhimurium. The experiment in a line: Genotoxicity in Salmonella typhimurium TA102 at 50 times IC50 by Ames test. The series is classed as toxicity. Conditions: salmonella enterica subsp. enterica serovar typhimurium.
Series [27] has as its system Salmonella typhimurium. The experiment in a line: Genotoxicity in Salmonella typhimurium TA1535 at 50 times IC50 by Ames test. In kind it is toxicity. The settings on record: salmonella enterica subsp. enterica serovar typhimurium.
For series [28], the system named is U-937. The experiment in a line: Growth inhibition of human U937 cells at 50 uM after 72 hrs by MTT assay. In kind it is functional. The settings on record: U-937, 72 h, read-out: GI.

Chain of DNA (cytosine-5)-methyltransferase 1 (Homo sapiens) (P26358 whole entry): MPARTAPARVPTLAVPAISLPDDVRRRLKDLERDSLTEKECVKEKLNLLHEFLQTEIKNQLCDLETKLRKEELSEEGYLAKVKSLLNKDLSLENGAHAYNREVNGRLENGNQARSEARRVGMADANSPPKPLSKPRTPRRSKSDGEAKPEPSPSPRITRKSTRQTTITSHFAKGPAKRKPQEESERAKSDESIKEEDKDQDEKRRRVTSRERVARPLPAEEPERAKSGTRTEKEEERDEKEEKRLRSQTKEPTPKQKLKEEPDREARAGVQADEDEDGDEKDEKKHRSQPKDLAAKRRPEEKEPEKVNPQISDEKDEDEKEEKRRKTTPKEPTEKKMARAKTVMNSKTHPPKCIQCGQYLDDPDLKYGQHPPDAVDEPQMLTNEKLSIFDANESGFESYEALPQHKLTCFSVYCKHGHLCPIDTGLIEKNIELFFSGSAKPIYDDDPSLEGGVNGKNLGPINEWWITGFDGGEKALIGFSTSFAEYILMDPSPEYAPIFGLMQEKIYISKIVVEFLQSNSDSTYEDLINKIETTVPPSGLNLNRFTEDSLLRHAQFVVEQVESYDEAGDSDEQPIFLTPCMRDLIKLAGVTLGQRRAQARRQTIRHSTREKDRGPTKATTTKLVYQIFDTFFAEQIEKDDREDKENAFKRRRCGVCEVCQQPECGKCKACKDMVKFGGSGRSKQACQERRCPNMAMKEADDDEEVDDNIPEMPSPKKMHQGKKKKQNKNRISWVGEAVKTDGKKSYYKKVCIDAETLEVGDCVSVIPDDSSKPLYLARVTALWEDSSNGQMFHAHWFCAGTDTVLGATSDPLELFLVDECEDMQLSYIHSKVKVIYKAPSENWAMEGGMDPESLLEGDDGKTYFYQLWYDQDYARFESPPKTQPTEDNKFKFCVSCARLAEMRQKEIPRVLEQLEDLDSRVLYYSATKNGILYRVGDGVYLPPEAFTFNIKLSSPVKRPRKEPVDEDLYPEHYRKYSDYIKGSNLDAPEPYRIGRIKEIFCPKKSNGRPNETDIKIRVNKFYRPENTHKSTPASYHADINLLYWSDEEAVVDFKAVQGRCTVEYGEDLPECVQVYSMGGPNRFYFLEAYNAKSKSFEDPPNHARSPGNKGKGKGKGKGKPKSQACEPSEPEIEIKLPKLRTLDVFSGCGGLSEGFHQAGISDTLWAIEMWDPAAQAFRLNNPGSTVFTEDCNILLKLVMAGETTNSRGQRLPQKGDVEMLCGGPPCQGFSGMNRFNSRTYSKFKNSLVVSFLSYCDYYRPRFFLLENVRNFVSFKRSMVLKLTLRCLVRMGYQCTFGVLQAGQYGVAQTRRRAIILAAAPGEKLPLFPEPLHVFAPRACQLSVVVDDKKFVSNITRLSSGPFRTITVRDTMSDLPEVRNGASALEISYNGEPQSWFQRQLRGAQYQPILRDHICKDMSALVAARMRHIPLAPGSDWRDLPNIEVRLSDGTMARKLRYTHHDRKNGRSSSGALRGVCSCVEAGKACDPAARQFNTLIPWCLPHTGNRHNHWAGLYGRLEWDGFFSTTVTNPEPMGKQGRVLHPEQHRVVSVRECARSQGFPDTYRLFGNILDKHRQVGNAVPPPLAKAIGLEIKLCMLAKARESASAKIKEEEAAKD
Chain of DNMT3B-DNMT3L complex (Homo sapiens) (Q9UJW3 whole entry, looked up, other chains not shown): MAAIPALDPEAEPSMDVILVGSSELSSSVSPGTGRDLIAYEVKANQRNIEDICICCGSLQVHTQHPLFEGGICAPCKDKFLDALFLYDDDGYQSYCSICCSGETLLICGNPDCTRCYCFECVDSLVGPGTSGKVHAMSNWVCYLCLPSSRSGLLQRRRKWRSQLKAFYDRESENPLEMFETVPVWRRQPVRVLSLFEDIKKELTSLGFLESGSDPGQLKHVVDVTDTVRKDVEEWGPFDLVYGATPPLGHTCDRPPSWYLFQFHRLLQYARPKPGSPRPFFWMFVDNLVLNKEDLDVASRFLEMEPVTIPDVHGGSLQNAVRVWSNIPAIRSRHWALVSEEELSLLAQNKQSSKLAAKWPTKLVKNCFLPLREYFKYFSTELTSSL
Chain of DNMT3A2/3L complex (Homo sapiens) (Q9UJW3 whole entry, looked up): as the sequence (Q9UJW3 whole entry, looked up, other chains not shown) above
Chain of DNMT3A2/3L complex (Homo sapiens) (Q9Y6K1 whole entry, looked up): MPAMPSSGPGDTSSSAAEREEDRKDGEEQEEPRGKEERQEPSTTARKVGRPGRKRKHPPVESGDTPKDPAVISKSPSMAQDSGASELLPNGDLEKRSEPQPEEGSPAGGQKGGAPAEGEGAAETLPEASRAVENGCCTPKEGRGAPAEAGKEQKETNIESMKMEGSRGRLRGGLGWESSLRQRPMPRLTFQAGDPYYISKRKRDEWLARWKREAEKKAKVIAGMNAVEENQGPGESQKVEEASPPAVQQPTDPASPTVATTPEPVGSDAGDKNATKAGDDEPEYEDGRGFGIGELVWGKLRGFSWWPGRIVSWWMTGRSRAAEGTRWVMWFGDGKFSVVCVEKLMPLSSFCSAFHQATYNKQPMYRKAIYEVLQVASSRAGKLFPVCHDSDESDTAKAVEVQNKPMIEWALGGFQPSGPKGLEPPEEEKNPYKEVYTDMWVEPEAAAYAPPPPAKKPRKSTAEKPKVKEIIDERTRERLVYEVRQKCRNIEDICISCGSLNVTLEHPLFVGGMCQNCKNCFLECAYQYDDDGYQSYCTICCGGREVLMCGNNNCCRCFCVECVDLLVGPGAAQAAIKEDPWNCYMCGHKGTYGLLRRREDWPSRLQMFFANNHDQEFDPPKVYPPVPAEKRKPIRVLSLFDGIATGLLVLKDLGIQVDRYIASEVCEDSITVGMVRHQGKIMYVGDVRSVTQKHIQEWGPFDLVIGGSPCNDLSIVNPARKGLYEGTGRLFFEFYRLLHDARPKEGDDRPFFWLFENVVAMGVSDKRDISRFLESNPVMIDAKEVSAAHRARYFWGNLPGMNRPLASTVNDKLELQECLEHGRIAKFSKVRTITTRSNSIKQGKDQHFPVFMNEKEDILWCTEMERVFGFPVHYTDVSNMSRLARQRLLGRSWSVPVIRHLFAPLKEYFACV
Chain of Histone deacetylase 1 (Q13547 whole entry): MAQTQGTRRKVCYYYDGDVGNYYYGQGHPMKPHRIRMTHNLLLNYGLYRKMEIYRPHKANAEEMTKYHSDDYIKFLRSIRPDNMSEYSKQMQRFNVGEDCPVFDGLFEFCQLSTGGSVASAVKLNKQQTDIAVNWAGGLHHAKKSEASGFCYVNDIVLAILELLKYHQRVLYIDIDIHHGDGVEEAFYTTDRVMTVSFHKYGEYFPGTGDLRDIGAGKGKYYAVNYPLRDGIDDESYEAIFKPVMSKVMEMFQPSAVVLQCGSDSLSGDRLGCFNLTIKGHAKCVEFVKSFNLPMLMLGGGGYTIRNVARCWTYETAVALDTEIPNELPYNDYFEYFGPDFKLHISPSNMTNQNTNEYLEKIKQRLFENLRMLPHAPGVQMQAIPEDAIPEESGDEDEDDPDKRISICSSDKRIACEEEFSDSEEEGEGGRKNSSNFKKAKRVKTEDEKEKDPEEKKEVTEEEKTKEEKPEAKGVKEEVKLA

What is called IC50 is the point on the concentration scale where inhibition reaches its midpoint. High values mean lower potency, low ones higher potency. What is called inhibition is the relative decrease from the control value, in per cent. Take `COc1ccc(Cl)cc1C(=O)NCCc1ccc(/C=C/C(=O)NO)cc1`: the half-maximal inhibitory concentration (IC50) in [1] was 12500 nM; in series [5], 19.2 nM; in [6], 12 nM; in series [7], 2750 nM; in series [8] it was 190 nM; in series [9], 5390 nM. Further, the half-inhibitory concentration (IC50) is 5430 nM in series [10] and 10600 nM in series [11]. Moreover, the values for the inhibition in series [2], in series [3] and in series [4] were 39.8 to 40%, 3.98% and 10.6%, respectively. Also, the viability at 0.5 µM in [12] worked out at 84%. The Activity is given as 6.9% in series [13]; 9.11% in series [14]; 0.02% in [15]; 10.1% in series [17]; 36.4% in series [18]; 0.942% in [19]. In addition, the Activity in series [21] is 41.8%; in series [22] it was 57.8%; in series [23], 0.02%; in series [24], “Non-Toxic”; in [25], “Non-Toxic”; in series [26], “Non-Toxic”. For the same compound, the Activity result in [27] is “Non-Toxic”. The viability at 1 µM in series [16] came out at 52.8%. For the same compound, the viability at 2.5 µM in series [20] was 0.365%.

Take `O=C(/C=C/c1ccc(CCNC(=O)c2ccc3[nH]cnc3c2)cc1)NO`: the inhibition of growth at 50 µM in series [28] turned out to be 45%. For the same compound, the inhibition in series [2] was 47 to 47.4%; in series [3], 41 to 41.2%; in series [4] it was 30.8%. For the same compound, the IC50 in [5] is 7.8 nM; in [6] it was 4.68 nM; in series [7], 31700 nM.
